From US20260184691A1, “INHIBITORS AND DEGRADERS OF PIP4K PROTEIN” (Larkspur Biosciences, Inc., priority 2022, published 2026) come the findings set out here.

The assay concerns the target T1, Human PIP4K2C (Homo sapiens, UniProt Q8TBX8).
T1 construct: purchased Eurofins DiscoverX 87-0007-1094
T1 sequence (Q8TBX8 1-421): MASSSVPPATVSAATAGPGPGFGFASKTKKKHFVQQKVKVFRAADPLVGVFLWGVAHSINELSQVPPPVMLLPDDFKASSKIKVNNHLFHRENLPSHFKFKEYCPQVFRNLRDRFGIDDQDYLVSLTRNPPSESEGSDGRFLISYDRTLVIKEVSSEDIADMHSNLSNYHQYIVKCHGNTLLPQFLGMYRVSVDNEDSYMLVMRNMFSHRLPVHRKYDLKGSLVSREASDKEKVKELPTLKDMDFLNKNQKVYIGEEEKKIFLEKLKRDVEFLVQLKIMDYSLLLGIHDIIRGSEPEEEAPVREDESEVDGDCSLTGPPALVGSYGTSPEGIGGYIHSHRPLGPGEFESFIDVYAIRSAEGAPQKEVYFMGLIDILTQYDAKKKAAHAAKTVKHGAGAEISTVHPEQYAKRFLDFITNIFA
Kind of assay: Enzyme binding assay (KINOMEscan), active site-directed competition binding. Particulars: 11-point dose response, duplicate, top concentration 5 micromolar; read-out: Pip4k2c Kd: IC50. As to the method:
PIP4K2C binding constants disclosed herein were determined using the proprietary Human PIP4K2C binding assay (Catalog number 87-0007-1094, Eurofins DiscoverX, San Diego, CA). This assay measures active site-directed competition binding to an immobilized ligand (see https://doi.org/10.1038/nbt1068, herein incorporated by reference in its entirety). Experiments were conducted using an 11-point dose response curve, in duplicate, with a top starting concentration of 5 micromolar; the Levenberg-Marquardt algorithm was used to fit a Hill equation to dose-response data to calculate IC50 values (see Table 5).

The structures appear in SMILES notation. pIC50: −log10 of the molar value.

As a reminder, the pIC50 is the negative decadic logarithm of the IC50, by convention in mol/L. Take `O=C1CCCN1c1cncc(Nc2ncc(Cl)c(N3CCC(C4CCCC4)C3)n2)c1` (centres unmarked) [Compound 136, 1-(5-((5-chloro-4-(3-cyclopentylpyrrolidin-1-yl)pyrimidin-2-yl)amino)pyridin-3-yl)pyrrolidin-2-one]: the pIC50 is > 6.30.

With `O=C1CCCN1c1cncc(Nc2ncc(F)c(-c3ccc(=O)n(C4CCC4)c3)n2)c1` [Compound 157, 1-cyclobutyl-5-(5-fluoro-2-((5-(2-oxopyrrolidin-1-yl)pyridin-3-yl)amino)pyrimidin-4-yl)pyridin-2(1H)-one], the pIC50 was > 6.30.

As for `O=C1CCCN1c1cncc(Nc2ncc(Cl)c(N3CCOCC3)n2)c1` [Compound 107, 1-(5-((5-chloro-4-morpholinopyrimidin-2-yl)amino)pyridin-3-yl)pyrrolidin-2-one], the negative-log IC50 (pIC50) was > 6.30.

In the case of `Cc1ccccc1-c1cccc(-c2nc(Nc3cncc(N4CCCC4=O)c3)ncc2Cl)c1` [Compound 15, 1-(5-((5-chloro-4-(2′-methyl-[1,1′-biphenyl]-3-yl)pyrimidin-2-yl)amino)pyridin-3-yl)pyrrolidin-2-one], the negative-log IC50 (pIC50) was > 6.30.

Regarding `CCCCC(=O)NC1CCCN(c2nc(Nc3cncc(N4CCCC4=O)c3)ncc2Cl)C1` (centres unmarked) [Compound 110, N-(1-(5-chloro-2-((5-(2-oxopyrrolidin-1-yl)pyridin-3-yl)amino)pyrimidin-4-yl)piperidin-3-yl)pentanamide], the pIC50 was > 6.30.

Turning to `O=C1CCCN1c1cncc(Nc2ncc(Cl)c(C3CCCCC3)n2)c1` [Compound 97, 1-(5-((5-chloro-4-cyclohexylpyrimidin-2-yl)amino)pyridin-3-yl)pyrrolidin-2-one], the pIC50 is > 6.30.

`O=C1CCCN1c1cncc(Nc2ncc(F)c(-c3cnn(C4COC4)c3)n2)c1` [Compound 148, 1-(5-((5-fluoro-4-(1-(oxetan-3-yl)-1H-pyrazol-4-yl)pyrimidin-2-yl)amino)pyridin-3-yl)pyrrolidin-2-one]: the negative logarithm of the IC50 (pIC50) is > 6.30.

In the case of `O=C1CCCN1c1cncc(Nc2ncc(Cl)c(N3CCC(c4ccccn4)C3)n2)c1` (centres unmarked) [Compound 120, 1-(5-((5-chloro-4-(3-(pyridin-2-yl)pyrrolidin-1-yl)pyrimidin-2-yl)amino)pyridin-3-yl)pyrrolidin-2-one], the negative logarithm of the IC50 (pIC50) is > 6.30.

Consider `O=C1CCCN1c1cncc(Nc2ncc(Cl)c(N3CCc4ccccc4C3)n2)c1` [Compound 128, 1-(5-((5-chloro-4-(3,4-dihydroisoquinolin-2(1H)-yl)pyrimidin-2-yl)amino)pyridin-3-yl)pyrrolidin-2-one], for which the pIC50 is > 6.30.

Turning to `O=C1CCCN1c1cncc(Nc2ncc(Cl)c(N3CCC(C4CCCCC4)C3)n2)c1` (centres unmarked) [Compound 45, 1-(5-((5-chloro-4-(3-cyclohexylpyrrolidin-1-yl)pyrimidin-2-yl)amino)pyridin-3-yl)pyrrolidin-2-one], the negative logarithm of the IC50 (pIC50) is 6.00 to 6.30.

For `O=C1CCCN1c1cncc(Nc2ncc(Cl)c(-c3cccc(N4CCCCC4)c3)n2)c1` [Compound 38, 1-(5-((5-chloro-4-(3-(piperidin-1-yl)phenyl)pyrimidin-2-yl)amino)pyridin-3-yl)pyrrolidin-2-one], the negative-log IC50 (pIC50) was > 6.30.

Turning to `Cn1cc(-c2nc(Nc3cncc(N4CCCC4=O)c3)ncc2Cl)cn1` [Compound 90, 1-(5-((5-chloro-4-(1-methyl-1H-pyrazol-4-yl)pyrimidin-2-yl)amino)pyridin-3-yl)pyrrolidin-2-one], the negative-log IC50 (pIC50) is > 6.30.

Turning to `O=C1CCCN1c1cncc(Nc2ncc(F)c(C3CCCN(C4CC4)C3)n2)c1` (centres unmarked) [Compound 154, 1-(5-((4-(1-cyclopropylpiperidin-3-yl)-5-fluoropyrimidin-2-yl)amino)pyridin-3-yl)pyrrolidine-2-one], the pIC50 was > 6.30.

With `CC(C)c1cc(-c2nc(Nc3cncc(N4CCCC4=O)c3)ncc2Cl)ccn1` [Compound 111, 1-(5-((5-chloro-4-(2-isopropylpyridin-4-yl)pyrimidin-2-yl)amino)pyridin-3-yl)pyrrolidin-2-one], the pIC50 is > 6.30.

Take `O=C1CCCN1c1cncc(Nc2cc(-c3ccc(F)cc3)c(Cl)cn2)c1` [Compound 103, 1-(5-((5-chloro-4-(4-fluorophenyl)pyridin-2-yl)amino)pyridin-3-yl)pyrrolidin-2-one]: the pIC50 was > 6.30.

Regarding `O=C1CCCN1c1cncc(Nc2ncc(Cl)c(N3CCCC(C4CCCC4)C3)n2)c1` (centres unmarked) [Compound 131, 1-(5-((5-chloro-4-(3-cyclopentylpiperidin-1-yl)pyrimidin-2-yl)amino)pyridin-3-yl)pyrrolidin-2-one], the pIC50 was > 6.30.

Consider `O=C1CCCN1c1cncc(Nc2ncc(Cl)c(-c3cccc(-c4ccccc4Cl)c3)n2)c1` [Compound 14, 1-(5-((5-chloro-4-(2′-chloro-[1,1′-biphenyl]-3-yl)pyrimidin-2-yl)amino)pyridin-3-yl)pyrrolidin-2-one], for which the pIC50 was > 6.30.

As to `Cc1ccc(-c2nc(Nc3cncc(N4CCCC4=O)c3)ncc2Cl)cc1` [Compound 94, 1-(5-((5-chloro-4-(p-tolyl)pyrimidin-2-yl)amino)pyridin-3-yl)pyrrolidin-2-one], the negative logarithm of the IC50 (pIC50) is > 6.30.

As for `O=C1CCCN1c1cncc(Nc2ncc(Cl)c(-c3cc(-c4ccccc4)ccc3Cl)n2)c1` [Compound 20, 1-(5-((5-chloro-4-(4-chloro-[1,1′-biphenyl]-3-yl)pyrimidin-2-yl)amino)pyridin-3-yl)pyrrolidin-2-one], the pIC50 was > 6.30.

Consider `O=C1CCCN1c1cncc(Nc2ncc(Cl)c(N3CCC[C@H](c4ccccn4)C3)n2)c1` (single isomer, unassigned) [Compound 125], for which the negative-log IC50 (pIC50) was > 6.30.

With `O=C1CCCN1c1cncc(Nc2ncc(Cl)c(N3CCC[C@@H](c4ccccc4)C3)n2)c1` [Compound 43, (S)-1-(5-((5-chloro-4-(3-phenylpiperidin-1-yl)pyrimidin-2-yl)amino)pyridin-3-yl)pyrrolidin-2-one], the pIC50 was > 6.30.

In the case of `O=C1CCCN1c1cncc(Nc2ncc(Cl)c(N3CCCc4ccccc43)n2)c1` [Compound 127, 1-(5-((5-chloro-4-(3,4-dihydroquinolin-1(2H)-yl)pyrimidin-2-yl)amino)pyridin-3-yl)pyrrolidin-2-one], the negative-log IC50 (pIC50) is > 6.30.

In the case of `O=C1CCCN1c1cncc(Nc2ncc(Cl)c(-c3cccc(Oc4ccccc4)c3)n2)c1` [Compound 142, 1-(5-((5-chloro-4-(3-phenoxyphenyl)pyrimidin-2-yl)amino)pyridin-3-yl)pyrrolidin-2-one], the pIC50 is > 6.30.

For the compound `O=C1CCCN1c1cncc(Nc2ncc(Cl)c(-c3cccc(C4CCCCC4)c3)n2)c1` [Compound 19, 1-(5-((5-chloro-4-(3-cyclohexylphenyl)pyrimidin-2-yl)amino)pyridin-3-yl)pyrrolidin-2-one], the pIC50 was > 6.30.

With `O=C1CCCN1c1cncc(Nc2ncc(Cl)c(N3CCCC(n4ccccc4=O)C3)n2)c1` (centres unmarked) [Compound 156, 1-(1-(5-chloro-2-((5-(2-oxopyrrolidin-1-yl)pyridin-3-yl)amino)pyrimidin-4-yl)piperidin-3-yl)pyridin-2(1H)-one], the pIC50 is > 6.30.

With `COc1ccc(-c2cccc(-c3nc(Nc4cncc(N5CCCC5=O)c4)ncc3Cl)c2)cc1` [Compound 5, 1-(5-((5-chloro-4-(4′-methoxy-[1,1′-biphenyl]-3-yl)pyrimidin-2-yl)amino)pyridin-3-yl)pyrrolidin-2-one], the pIC50 is > 6.30.
